Reference: ChEMBL document CHEMBL6153135, “Rational Design of a Potent, Selective, and Metabolically Stable CDK9 Inhibitor to Counteract Osimertinib Resistance through Mcl-1 Suppression and Enhanced BRD4 Co-Targeting” (J Med Chem, 2025)
Active and inactive are the calls of the source. The rule behind the calls is not given here.

Tests used:
[1] = AUC (0 to t) in Sprague-Dawley rat at 20 mg/kg, po; format: ADME, organism-based; conditions: in vivo
[2] = test system: Lung adenocarcinoma organoid; test: Anti-tumor activity against patient (#2514)-derived human Lung adenocarcinoma organoid assessed as inhibition of cell viability measured after 96 hrs relative to control; format: functional, Neoplasm
[3] = Clearance in BALB/c mouse at 2 mg/kg, iv; format: ADME, organism-based; conditions: in vivo
[4] = test system: Lung adenocarcinoma organoid; test: Anti-tumor activity against Osimertinib-resistant patient (#0243)-derived human Lung adenocarcinoma organoid assessed as inhibition of cell viability measured after 96 hrs; format: functional, tissue-based; conditions: Neoplasm
[5] = target: CDK7/Cyclin H/MNAT1 (Homo sapiens) (UniProt P51946+P50613+P51948); test: Inhibition of CDK7/Cyclin H/MAT1 (unknown origin) at 100 nM preincubated for 10 mins followed by substrate/ATP measured after 60 mins by ADP-Glo assay relative to control; format: protein-complex assay; conditions: time 70.0 min
[6] = target: Cyclin-dependent kinase 2/cyclin E1 (Homo sapiens) (UniProt P24864+P24941); test: Inhibition of CDK2/cyclin E1 (unknown origin) at 100 nM preincubated for 10 mins followed by substrate/ATP measured after 60 mins by ADP-Glo assay relative to control; format: protein-complex assay; conditions: time 70.0 min
[7] = Metabolic stability in human liver S9 fraction assessed as half life measured for 5 to 60 mins by LC-MS/MS analysis; format: ADME, subcellular; conditions: time 5-60 min
[8] = Apparent volume of distribution in Sprague-Dawley rat at 2 mg/kg, iv; format: ADME, organism-based; conditions: in vivo, read-out: Vz
[9] = Toxicity in BALB-c nude mouse xenografted with human NCI-H1975 cells assessed as pathological damage in liver at 15 mg/kg, iv administered on every two days by H and E staining based analysis; format: organism-based; conditions: in vivo
[10] = Clearance in BALB/c mouse at 15 mg/kg, po; format: ADME, organism-based; conditions: in vivo
[11] = test system: Lung adenocarcinoma organoid; test: Anti-tumor activity against patient (#2514)-derived human Lung adenocarcinoma organoid assessed as inhibition of cell viability measured after 96 hrs; format: functional, tissue-based; conditions: Neoplasm
[12] = target: Glycogen synthase kinase-3 alpha (Homo sapiens) (UniProt P49840); test: Inhibition of GSK3-alpha (unknown origin) at 100 nM preincubated for 10 mins followed by substrate/ATP measured after 60 mins by ADP-Glo assay relative to control; conditions: time 70.0 min
[13] = AUC (0 to infinity) in Sprague-Dawley rat at 20 mg/kg, po; format: ADME, organism-based; conditions: in vivo
[14] = test system: Osimertinib-resistant NCI-H1975 cell; test: Induction of apoptosis in human Osimertinib-resistant NCI-H1975 cells assessed as late apoptotic cells at 2 uM incubated for 16 hrs by Annexin V-FITC/PI staining based flow cytometry (reference value: 1.42 %); format: functional
[15] = test system: Osimertinib-resistant NCI-H1975 cell; test: Inhibition of colony formation in human Osimertinib-resistant NCI-H1975 cells at 25 nM measured after 14 days by crystal violet staining based analysis relative to control; format: functional; conditions: 336 h, time 14 day
[16] = test system: Lung adenocarcinoma organoid; test: Anti-tumor activity against Osimertinib-resistant patient (#0416)-derived human Lung adenocarcinoma organoid assessed as inhibition of cell viability measured after 96 hrs relative to control; format: functional, Neoplasm
Mus musculus = test: In vivo downregulation of c-Myc level in tumor tissue of BALB-c nude mouse xenografted with human Osimertinib-resistant HCC827 cells at 5 mg/kg, iv in presence of JQ1 by Western blot analysis; format: functional, organism-based
[17] = Cmax in Sprague-Dawley rat at 20 mg/kg, po; conditions: in vivo
[18] = AUC (0 to infinity) in Sprague-Dawley rat at 2 mg/kg, iv; format: ADME, organism-based; conditions: in vivo
[19] = test system: Osimertinib-resistant NCI-H1975 cell; test: Induction of apoptosis in human Osimertinib-resistant NCI-H1975 cells assessed as early apoptotic cells at 0.5 uM incubated for 16 hrs by Annexin V-FITC/PI staining based flow cytometry (reference value: 8.02 %); format: functional
[20] = test system: Lung adenocarcinoma organoid; test: Anti-tumor activity against Almonertinib-resistant patient (#2566)-derived human Lung adenocarcinoma organoid assessed as inhibition of cell viability measured after 96 hrs; format: functional, tissue-based; conditions: Neoplasm
CDK9/cyclin T1 = CDK9/cyclin T1 (Homo sapiens, UniProt P50750); test: Inhibition of CDK9/cyclin T1 (unknown origin) preincubated for 10 mins followed by substrate/ATP measured after 60 mins by ADP-Glo assay; format: protein-complex assay
[21] = Toxicity in BALB-c nude mouse xenografted with human NCI-H1975 cells assessed as pathological damage in kidney at 15 mg/kg, iv administered on every two days by H and E staining based analysis; format: organism-based; conditions: in vivo
[22] = test system: Osimertinib-resistant HCC827 cell; test: Inhibition of stem cell multi-functionality signaling in human Osimertinib-resistant HCC827 cells by KEGG analysis; format: functional, cell-based
[23] = test system: Lung adenocarcinoma organoid; test: Anti-tumor activity against multidrug-resistant patient (#2663)-derived human Lung adenocarcinoma organoid assessed as inhibition of cell viability measured after 96 hrs; format: functional, tissue-based; conditions: Neoplasm
[24] = test system: Osimertinib-resistant HCC827 cell; test: Upregulation of c-Myc level in human Osimertinib-resistant HCC827 cells at 100 to 500 nM incubated for 12 hrs by Western blot analysis; format: functional, cell-based; conditions: dose 100-500 nM
[25] = Apparent volume of distribution in Sprague-Dawley rat at 20 mg/kg, po; format: ADME, organism-based; conditions: in vivo
[26] = test system: Osimertinib-resistant HCC827 cell; test: Inhibition of colony formation in human Osimertinib-resistant HCC827 cells at 12.5 nM measured after 14 days in presence of JQ1 by crystal violet staining based analysis; format: functional; conditions: time 14.0 day
[27] = Clearance in Sprague-Dawley rat at 20 mg/kg, po; format: ADME, organism-based; conditions: in vivo
[28] = test system: Osimertinib-resistant HCC827 cell; test: Inhibition of DNA replication in human Osimertinib-resistant HCC827 cells by KEGG analysis; format: functional, cell-based
[29] = Cmax in BALB/c mouse at 15 mg/kg, po; conditions: in vivo
[30] = target: Homeodomain-interacting protein kinase 3 (Homo sapiens) (UniProt Q9H422); test: Inhibition of HIPK3 (unknown origin) at 100 nM preincubated for 10 mins followed by substrate/ATP measured after 60 mins by ADP-Glo assay relative to control; conditions: time 70.0 min
[31] = Downregulation of c-Myc level in human Osimertinib-resistant HCC827 cells at 100 nM incubated for 12 hrs in presence of JQ1 by Western blot analysis relative to control; format: functional, Osimertinib-resistant HCC827 cell
[32] = Metabolic stability in mouse liver microsomes assessed as half life measured for 5 to 60 mins by LC-MS/MS analysis; format: ADME, Microsome; conditions: time 5-60 min

CDK9/cyclin T1, sequence (O60563 whole entry): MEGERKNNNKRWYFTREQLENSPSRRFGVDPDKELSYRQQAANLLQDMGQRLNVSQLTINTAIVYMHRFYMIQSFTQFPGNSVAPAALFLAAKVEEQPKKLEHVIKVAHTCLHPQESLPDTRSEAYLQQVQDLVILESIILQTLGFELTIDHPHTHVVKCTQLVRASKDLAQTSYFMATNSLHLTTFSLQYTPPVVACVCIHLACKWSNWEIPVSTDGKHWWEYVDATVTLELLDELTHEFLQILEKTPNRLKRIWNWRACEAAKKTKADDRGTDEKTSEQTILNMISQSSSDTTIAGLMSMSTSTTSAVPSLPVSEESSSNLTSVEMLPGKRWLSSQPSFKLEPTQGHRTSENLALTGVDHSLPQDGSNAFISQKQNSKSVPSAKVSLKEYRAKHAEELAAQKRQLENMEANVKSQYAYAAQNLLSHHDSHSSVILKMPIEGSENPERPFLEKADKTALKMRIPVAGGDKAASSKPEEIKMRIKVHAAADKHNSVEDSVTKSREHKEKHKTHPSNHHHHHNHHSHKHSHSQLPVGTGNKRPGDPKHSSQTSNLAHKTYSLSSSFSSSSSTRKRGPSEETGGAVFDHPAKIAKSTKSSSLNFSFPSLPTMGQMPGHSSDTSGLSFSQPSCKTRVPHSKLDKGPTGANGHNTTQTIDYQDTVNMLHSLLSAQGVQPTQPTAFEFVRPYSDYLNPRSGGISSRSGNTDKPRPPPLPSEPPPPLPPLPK
CDK9/cyclin T1, sequence (P50750 whole entry): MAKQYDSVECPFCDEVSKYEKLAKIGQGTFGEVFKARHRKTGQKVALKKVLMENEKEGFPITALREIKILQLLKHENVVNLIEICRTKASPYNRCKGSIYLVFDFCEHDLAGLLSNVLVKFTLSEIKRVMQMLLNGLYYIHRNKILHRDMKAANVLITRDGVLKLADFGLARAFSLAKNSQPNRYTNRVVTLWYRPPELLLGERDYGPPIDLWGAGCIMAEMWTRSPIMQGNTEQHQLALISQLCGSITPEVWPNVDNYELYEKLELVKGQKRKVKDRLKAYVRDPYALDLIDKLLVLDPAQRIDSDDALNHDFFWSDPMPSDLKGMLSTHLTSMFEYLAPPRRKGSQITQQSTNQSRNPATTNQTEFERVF
Glycogen synthase kinase-3 alpha (Homo sapiens), sequence (P49840 2-483 limits assumed): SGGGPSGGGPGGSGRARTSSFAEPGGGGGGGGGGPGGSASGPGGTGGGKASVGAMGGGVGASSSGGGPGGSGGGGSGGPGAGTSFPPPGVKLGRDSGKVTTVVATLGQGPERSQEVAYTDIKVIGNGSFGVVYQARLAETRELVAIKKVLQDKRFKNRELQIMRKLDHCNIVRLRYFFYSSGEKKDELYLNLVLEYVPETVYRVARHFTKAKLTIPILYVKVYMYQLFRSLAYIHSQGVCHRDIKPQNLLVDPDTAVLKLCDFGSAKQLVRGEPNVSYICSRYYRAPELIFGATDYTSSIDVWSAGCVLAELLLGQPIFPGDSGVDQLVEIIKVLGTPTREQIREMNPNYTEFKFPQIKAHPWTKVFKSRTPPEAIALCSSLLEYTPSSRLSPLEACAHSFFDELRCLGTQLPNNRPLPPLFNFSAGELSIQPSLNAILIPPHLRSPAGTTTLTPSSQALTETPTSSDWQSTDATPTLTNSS
Homeodomain-interacting protein kinase 3 (Homo sapiens), sequence (Q9H422 whole entry, looked up): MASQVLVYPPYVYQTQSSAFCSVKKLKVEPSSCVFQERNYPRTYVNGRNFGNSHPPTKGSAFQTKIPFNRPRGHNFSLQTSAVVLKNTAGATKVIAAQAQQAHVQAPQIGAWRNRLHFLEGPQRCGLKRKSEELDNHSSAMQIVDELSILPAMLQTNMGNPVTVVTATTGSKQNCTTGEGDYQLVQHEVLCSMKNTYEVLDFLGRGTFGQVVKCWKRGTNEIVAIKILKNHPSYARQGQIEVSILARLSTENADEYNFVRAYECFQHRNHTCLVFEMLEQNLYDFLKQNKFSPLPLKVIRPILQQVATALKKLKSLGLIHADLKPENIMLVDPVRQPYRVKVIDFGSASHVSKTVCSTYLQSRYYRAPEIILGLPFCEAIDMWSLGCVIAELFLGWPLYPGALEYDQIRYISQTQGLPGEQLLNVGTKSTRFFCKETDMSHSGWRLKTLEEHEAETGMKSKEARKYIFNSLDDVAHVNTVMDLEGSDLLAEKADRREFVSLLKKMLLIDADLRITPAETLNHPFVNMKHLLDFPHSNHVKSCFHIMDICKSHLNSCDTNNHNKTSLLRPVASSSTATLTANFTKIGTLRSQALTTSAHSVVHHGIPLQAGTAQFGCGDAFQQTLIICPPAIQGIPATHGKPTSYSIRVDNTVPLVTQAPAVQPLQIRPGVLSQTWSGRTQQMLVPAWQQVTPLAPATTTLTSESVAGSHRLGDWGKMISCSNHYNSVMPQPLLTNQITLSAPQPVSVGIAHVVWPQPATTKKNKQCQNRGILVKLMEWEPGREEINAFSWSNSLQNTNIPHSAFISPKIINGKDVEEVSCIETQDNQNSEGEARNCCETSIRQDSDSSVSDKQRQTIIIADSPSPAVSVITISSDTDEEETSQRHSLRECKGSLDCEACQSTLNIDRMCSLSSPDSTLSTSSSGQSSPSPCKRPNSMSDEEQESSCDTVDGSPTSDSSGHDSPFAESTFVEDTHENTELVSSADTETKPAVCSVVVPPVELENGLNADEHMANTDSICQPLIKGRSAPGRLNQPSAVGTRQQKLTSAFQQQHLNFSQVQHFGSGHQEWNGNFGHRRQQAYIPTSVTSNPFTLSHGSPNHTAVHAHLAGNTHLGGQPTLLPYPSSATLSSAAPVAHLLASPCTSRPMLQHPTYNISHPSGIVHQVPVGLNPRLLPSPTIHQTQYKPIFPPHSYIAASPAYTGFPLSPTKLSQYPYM

AUC(0-t) [1]: 3610 ng·h/mL
clearance [3]: 83.3 mL/min/kg
IC50 [4]: < 10 nM
inhibition [5]: 11.9%
inhibition [6]: 50.2%
half-life [7]: 1.62 h
Vd [8]: 1.9 L/kg
CL/F [10]: 350 mL/min/kg
IC50 [11]: < 50 nM
inhibition [12]: 97.5%
AUC(0-inf) [13]: 5960 ng·h/mL
Cmax [17]: 775.6 ng/mL
AUC(0-inf) [18]: 2550 ng·h/mL
IC50 [20]: 48.3 nM
IC50 (CDK9/cyclin T1): 1.2 nM
IC50 [23]: < 50 nM
Vz [25]: 30 L/kg
CL/F [27]: 63.3 mL/min/kg
Cmax [29]: 344.1 ng/mL
inhibition [30]: 82.5%
half-life [32]: 1.07 h
SMILES: CC(=O)N1CCC(NC(=O)c2ccc3cc2OCCCCCCOc2cc(ccc2F)-c2nc(ncc2F)N3)CC1
Imax [2]: 99.9%
Activity [9]: Non-toxic
Activity [14]: 22%
inhibition at 0.025 µM [15]: 100%
Imax [16]: >98%
Activity (Mus musculus): Active
Activity [19]: 25.4%
Activity [21]: Non-toxic
inhibition [22]: Active
Activity [24]: Active
inhibition [26]: Active
inhibition [28]: Active
Activity [31]: 100%
